Where a name gives a salt, the structure may show the parent alone. Read-outs that look alike come from different tables or passages of the source.

In series [1] the target is T1, human 5-hydroxytryptamine receptor 2A (5-HT2A) (Homo sapiens, UniProt P28223).
T1 construct: expressed in transfected cells; host or cells: HTR2A&Ga15-HEK293
Description: Human 5-HT2A functional FLIPR assay (agonist mode). As to conditions: for RFU@10 μM: footnote: Curve fitting with activation (%) @ 10 mM with RFU. It counts as cell-based. As to the method:
To assess the potential excitatory effects of compounds targeting on human 5-hydroxytryptamine receptor 2A (5-HT2A) under agonist mode
HTR2A&Ga15-HEK293 cells were cultured in DMEM medium containing 10% dialyzed FBS and 1× penicillin-streptomycin, 100 μg/mL Hygromycin B and 300 μg/mL G418. The cells were passaged about three times a week, maintained between ~30% to ~90% confluence.
• 1. The cell culture medium (DMEM medium containing 10% dialyzed FBS and 1× penicillin-streptomycin, 100 μg/mL Hygromycin B and 300 μg/mL G418), TrypLE™ Express and DPBS was warmed to R. T. in advance. • 2. For induction, 1 μg/ml tetracycline (final concentration) was added to cell culture medium and incubated for 48 hours prior to seeding cells into plate at 37° C., 5% (v/v) CO2. The cell culture medium was removed from flask. Washed cells with DPBS. • 3. 2 mL TrypLE™ Express was added to the flask, mixed well by gentle shaking and cells incubated at 37° C. for a few minutes. • 4. The cells morphological change was checked under microscope, and the digestion stopped by adding 4 mL cell culture medium to the flask when most of cells turned to round. • 5. The cell suspension was transferred into a 15 mL centrifuge tube, and then centrifuged at 1,200 rpm for 5 minutes. • 6. The supernatant was removed. The cell pellet was resuspended with 2 mL cell culture medium. • 7. The cell density was counted using cell counter. Only cells with >85% viability were used for the assay. • 8. Cells were diluted to 6.67×10^5/mL with cell culture medium. • 9. 30 μL/well cell suspensions was added into a 384-well cell plate (The cell density was 20,000 cells/well). • 10. The cell plate was incubated overnight at 37° C., 5% (v/v) CO2. 2.3 Cell handling • 1. On the day of experiments, culture medium was removed from the cell plate. • 12. 10 μL of assay buffer (20 mM HEPES, in 1× HBSS, pH 7.4) was added to each well of the cell plate. • 3. 2×dye solution was prepared following the manual of the FLIPR® Calcium 6 Assay Kit: • i. The dye was diluted with assay buffer. • ii. Probenecid was added to the final concentration of 5 mM. • iii. Vortexed vigorously for 1-2 minutes. • 4. 10 μL of 2× dye solution was added to each well of the cell plate • 5. The cell plate was placed on plate shaker, and was shaken at 600 rpm for 2 minutes. • 6. The plate was incubated at 37° C. for 2 hours followed by an additional 15-minute incubation at 25° C. 2.4 Prepare 3×compound • 1, Serotonin HCl was prepared to the concentration of 10 mM with DMSO. • 2. The test compounds were prepared to the concentration of 10 mM with DMSO. • 3. The compounds were added to a 384-well compound source plate. • 4. 3-folds serial dilutions were performed with DMSO. • 5. 90 nL/well of serial diluted compounds were transferred from source plate to a 384-well compound plate by using an Echo. • 6. 30 μL/well of assay buffer (20 mM HEPES in 1× HBSS, pH 7.4) were added to the compound plate. • 7. Mixed on the plate-on-plate shaker for 2 minutes.
• 1, After the cells were incubated with dye solution, the cell plate, compound plate containing 3×compounds and FLIPR tips were placed into FLIPR. • 2, 10 μL of 3×compounds were transferred from the compound plate to the cell plate by FLIPR. • 3, The plate was read for 160 sec with 1 sec interval to obtain the data of agonist mode.
• 1, The normalized fluorescence reading (RFU) was calculated as shown below, wherein Fmax and Fmin stand for maximum and minimum of calcium signal during defined time window:
[formula] • 2. EC50 was calculated by fitting RFU against log of compound concentrations with Hill equation using XLfit.

A short description of series [2]: Human, rat and mouse liver microsomes stability (overall conclusion). It is filed as in vitro ADME. Particulars: 60-minute time period. As for the experimental part:
This study was performed in duplicate.
All calculations were carried out using Microsoft Excel.
All calculations were carried out using Microsoft Excel. Peak areas were determined from extracted ion chromatograms.
On the technique in general: Liver microsomes are a subcellular fraction often used to study metabolism.

A short description of series [3]: in vitro. Particulars: human, microsomes.
Description: The concentrations of parent compounds in reaction systems were evaluated by LC-MS/MS for estimating the stability in pooled human, male rat and male mouse liver microsomes. The in vitro intrinsic clearances of test compounds were determined as well. Protocol
A master solution in the “Incubation Plate” containing phosphate buffer, ultra-pure H2O, MgCl2 solution and liver microsomes was made according to Table 6. The mixture was pre-warmed at 37° C. water bath for 5 minutes.
The reaction was started with the addition of 4 μL of 200 μM exemplary test compounds of the application or control compounds to each master solution to get the final concentration of 2 μM. This study was performed in duplicate.
Aliquots of 50 μL were taken from the reaction solution at 0, 15, 30, 45 and 60 minutes. The reaction solutions were stopped by the addition of 4 volumes of cold methanol with IS (100 nM alprazolam, 200 nM imipramine, 200 nM labetalol and 2 μM ketoprofen). Samples were centrifuged at 3,220 g for 40 minutes. Aliquot of 90 μL of the supernatant was mixed with 90 μL of ultra-pure H2O and then was used for LC-MS/MS analysis.
All calculations were carried out using Microsoft Excel. Peak area ratios of test compound to internal standard (listed in the below table) were determined from extracted ion chromatograms.
All calculations were carried out using Microsoft Excel. Peak areas were determined from extracted ion chromatograms. The slope value, k, was determined by linear regression of the natural logarithm of the remaining percentage of the parent drug vs. incubation time curve.
The in vitro half-life (in vitro t½) was determined from the slope value:
Conversion of the in vitro t½ (min) into the in vitro intrinsic clearance (in vitro CLint, in μL/min/mg proteins) was done using the following equation (mean of duplicate determinations):
The nature of series [4]: in vitro. Particulars: rat, plasma.
Description: (§1) The stock solution of test compound was prepared in DMSO and diluted at the final concentration of 200 μM.
(§2) • a. 2.5 μL of 200 μM or 1 mM test compound or control compound solution was spiked to 497.5 μL plasma to reach a final concentration of 1 μM or 5 μM. The final concentration of organic solvents was 0.5%. The assay was performed in duplicated. • b. The reaction samples were incubated at 37° C. at approximately 60 rpm in a water bath. • c. Aliquots of 50 μL were taken from the reaction samples at 0, 30, 60, 120, 180 and 240 minutes. The reaction was stopped by the addition of 7 volumes of cold acetonitrile containing internal standards (IS: 100 nM alprazolam, 200 nM imipramine, 200 nM labetalol and 2 μM ketoprofen). • d. All samples were vortexed for 2 minutes, followed by centrifugation at 3,220 g for 30 minutes to precipitate proteins. 100 μL of the supernatant was transferred to a new plate. The supernatant was diluted with ultrapure water according to the LC-MS signal response and peak shape.
(§3) Samples were Analyzed by LC-MS/MS. • LC system: Shimadzu • MS analysis: Triple Quad™ 6500+ from AB Inc (Canada) with an ESI interface • Column temperature: 40° C. • Column: Xselect® Hss T3 2.5μ (2.1×30 mm) coupled with preguard column • Mobile phase: 0.1% formic acid in water (A) and 0.1% formic acid in acetonitrile (B)
(§4) All calculations were carried out using Microsoft Excel. Remaining percentages of parent compounds at each time point were estimated by determining the peak area ratios from extracted ion chromatograms.
Series [5] in a line: in vitro. Particulars: mouse, plasma.
Description: as §1, §2, §3, §4
Series [6] can be described thus: in vitro. Particulars: dog, plasma.
Description: as §1, §2, §3, §4
The nature of series [7]: in vitro. Particulars: human.
Description: The Caco-2 cell culture medium was prepared consisting of Dulbecco's Modified Eagle's Medium (DMEM) with high glucose and L-glutamine supplemented with 10% FBS, 1× penicillin-streptomycin mixture and 1× non-essential amino acids (NEAA). • 2. The 50 μL of culture medium was added to each well of the Transwell insert. Transwell insert was removed from reservoir and 25 mL of culture medium was added. • 3. Incubated at 37° C., 5% CO2 for 1 hour. Plates were ready for cell seeding. • 4. The cells were cultivated in T-75 flasks in a cell culture incubator set at 37° C., 5% CO2, 95% relative humidity. The cells were allowed to reach 80-90% confluence before detaching and splitting. • 5. The cultivated cells were rinsed in T-75 flasks with 5 mL PBS. Aspirated off, 1.5 mL trypsin/EDTA was added, and incubated at 37° C. for approximately 5 to 10 minutes or until the cells detach and float. Trypsin/EDTA was inactivated by adding excess serum containing medium. • 6. The cell suspension was moved to a conical tube and cells were pelleted by centrifugation at 120×g for 10 minutes. • 7. The cells were resuspended in seeding medium at a density of 6.86×10^5 cells/mL. This cell concentration can be used to seed 2.40×10^5 cells/cm^2. […] Seeding and Feeding of Caco-2 Cells in Transwell Plates • 1. 50 μL of above cell suspension was added to each well of a previously prepared Transwell plate. • 2. The plate was incubated for 14-18 days. The medium was replaced every other day, beginning no sooner than 48 hours after initial plating. • 3. The procedure for medium changes was as follows. The plate was removed from incubator and placed in hood. The medium was aspirated from reservoir and each Transwell insert. 75 μL of culture medium was added to each well of Transwell inserts and 25 mL of culture medium was added to reservoir tray. The plate was returned to incubator.
When the 14-day Caco-2 cultured cells have reached confluence and are differentiated, they were ready to be used for transport studies. • 2. The medium was removed from reservoir and Transwell inserts. • 3. 75 μL of pre-warmed culture medium was added to each transwell insert and 25 mL of reservoir tray. • 4. The electrical resistance across the monolayer was measured using automated tissue resistance measuring system (World Precision Instruments, Sarasota, FL). • 5. The electrical resistance was recorded for each well. • 6. Once all wells were measured, the plate was returned to incubator. • 7. TEER of each well was calculated by the equation below. The TEER value of each well should be greater than 230 ohms-cm^2. TEER measurement (ohms)×Area of membrane (cm^2)=TEER value (ohm-cm^2)
The Caco-2 plate was removed from the incubator. Next, the monolayer was washed, and the volume exchanged two times using pre-warmed HBSS (10 mM HEPES, pH 7.4). Then the plate was incubated for 30 minutes at 37° C. • 1 mM stock solutions of control compounds and test compound(s) were prepared in DMSO and diluted with HBSS (10 mM HEPES, pH 7.4) to reach the final concentration of 5 μM. The final concentration of DMSO in the incubation system was 0.5%. Digoxin, prazosin and propranolol were used as control compounds in this assay. • 3. HBSS (10 mM HEPES, pH 7.4) was removed after 30 minutes pre-incubation. • 4. The rate of drug transport was incubated in the apical to basolateral direction. 75 μL of the control compounds and test compound was added to the Transwell insert (apical compartment). The wells were filled in the receiver plate (basolateral compartment) with 235 μL of HBSS (10 mM HEPES, pH 7.4). • 5. The rate of drug transport was determined in the basolateral to apical direction. 235 μL of the control compounds and test compound(s) was added to the receiver plate wells (basolateral compartment). The Transwell insert (apical compartment) was filled with 75 μL of HBSS (10 mM HEPES, pH 7.4). • 6. […] Incubated at 37° C. for 2 hours. • 8.
The nature of the next series: Rat plasma stability. Particulars: for Remaining Percentage: rat plasma, 0 min.
Another series can be described thus: Dog plasma stability. Particulars: for Remaining Percentage: dog plasma, 0 min.
A further series is described as follows: Human plasma stability. Particulars: for Remaining Percentage: human plasma, 0 min.
Another series in a line: Mouse plasma stability. Particulars: for Remaining Percentage: mouse plasma, 0 min.
A further series concerns the target human 5-HT2A receptor (Homo sapiens, UniProt P28223). Particulars: human versus rat receptor; cited from earlier work.
A further series concerns 5-HT2A. As to conditions: rats, 5-HT2A or 5-HT1A antagonists; cited from earlier work.
A further series deals with 5-HT1A receptors. Particulars: cited from earlier work.
For series [8] the following is noted: humans, controlled setting; cited from earlier work.
[9] abbreviates: FLIPR, agonist mode, ND = Not detected, read-out: h5-HT2A, EC50.
[10] abbreviates: Remaining Percentage after 60 min, human liver microsomes, with cofactors.

T1 sequence (P28223 whole entry): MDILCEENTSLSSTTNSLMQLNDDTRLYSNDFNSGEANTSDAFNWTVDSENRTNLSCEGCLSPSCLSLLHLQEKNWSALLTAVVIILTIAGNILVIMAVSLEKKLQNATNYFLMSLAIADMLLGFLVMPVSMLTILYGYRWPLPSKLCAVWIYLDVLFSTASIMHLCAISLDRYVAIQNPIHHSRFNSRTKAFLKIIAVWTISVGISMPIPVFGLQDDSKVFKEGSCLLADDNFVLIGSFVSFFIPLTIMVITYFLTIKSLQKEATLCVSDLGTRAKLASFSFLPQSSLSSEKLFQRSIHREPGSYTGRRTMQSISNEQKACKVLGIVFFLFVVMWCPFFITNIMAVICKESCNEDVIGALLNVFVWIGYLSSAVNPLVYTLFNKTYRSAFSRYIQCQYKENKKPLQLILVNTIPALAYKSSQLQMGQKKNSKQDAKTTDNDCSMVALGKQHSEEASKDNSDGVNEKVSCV
Chain of human 5-HT2A receptor (P28223 whole entry): as above
Description for Dog plasma stability: as §1, §2, §3, §4
Description for Human plasma stability: as §1, §2, §3, §4
Description for Mouse plasma stability: as §1, §2, §3, §4
Description for Rat plasma stability: as §1, §2, §3, §4

Regarding `CC(C)N(CCc1c[nH]c2cccc(O)c12)C(C)C` [Compound 7], the “RFU@10 μM” value in [1] is on record as 6358 RFU. Further, the EC50 in series [1] (setting [9]) was 81.4 nM.
Consider `CN(C)CCc1c[nH]c2cccc(OC(=O)CCCC(=O)Oc3cccc4[nH]cc(CCN(C)C)c34)c12` [Compound I-24, Bis(3-(2-(dimethylamino)ethyl)-1H-indol-4-yl) glutarate], for which the “RFU@10 μM” value in [1] is 3061 RFU. The concentration for a half-maximal effect (EC50) in [1] (setting [9]) came out at 24.9 nM. Besides, the “metabolic stability (conclusion)” value in [2] is “rapidly metabolized”. In “in vitro [3]”, this compound had a half-life at 2 µM of 4.94 min and an intrinsic metabolic clearance (microsomal CLint) at 2 µM of 281 µL/min/mg. The amount remaining at 1 h, 2 µM in the series “in vitro [3]” (setting [10]) was 0%. The same compound gave a share remaining at 1 h, 2 µM in the series “in vitro [3]” (Remaining Percentage after 60 min, human liver microsomes, without cofactors) of 1.08%. In the series “in vitro [4]”, this compound displayed an amount remaining at 0.5 h of 0%, an amount remaining at 1 h of 0%, a share remaining at 2 h of 0% and an amount remaining at 3 h of 0%. The amount remaining at 4 h in “in vitro [4]” stood at 0%. In “in vitro [5]”, this compound came in with a fraction remaining at 0.5 h of 0%, a fraction remaining at 1 h of 0%, an amount remaining at 2 h of 0% and a fraction remaining at 3 h of 0%. The compound further returned a fraction remaining at 4 h in “in vitro [5]” of 0%. In the series “in vitro [6]”, the half-life is 19 min, the amount remaining at 0.5 h amounted to 32.9%, the fraction remaining at 1 h was 11.2% and the share remaining at 2 h was 0%. In the series “in vitro [6]”, the fraction remaining at 3 h stood at 0% and the share remaining at 4 h was found to be 0%. Moreover, in “in vitro [7]” (Caco-2, pH 7.4), the apical-to-basolateral permeability (Papp A→B) at 2 h, 5 µM worked out at 0.27 ×10⁻⁶ cm/s; the Papp B→A at 2 h, 5 µM came to 2.47 ×10⁻⁶ cm/s; the efflux ratio at 2 h, 5 µM turned out to be 9.16. This compound also displayed a recovery at 2 h, 5 µM in the series “in vitro [7]” (Caco-2, pH 7.4, Percentage recovery A→B, apical to basolateral) of 112%. Further, the recovery at 2 h, 5 µM in the series “in vitro [7]” (Caco-2, pH 7.4, Percentage recovery B→A, basolateral to apical) stood at 105%. Besides, the “Remaining Percentage” value in “Rat plasma stability” is reported as 100.00%. The “Remaining Percentage” value in the series “Dog plasma stability” came out at 100.00%. For the same compound, in the series “Human plasma stability”, the “Remaining Percentage” value is 100.00%. Moreover, in the series “Mouse plasma stability”, the “Remaining Percentage” value is reported as 100.00%.
Take `CC(C)N(CCc1c[nH]c2cccc(OC(=O)CCCC(=O)Oc3cccc4[nH]cc(CCN(C(C)C)C(C)C)c34)c12)C(C)C` [Compound I-37, Bis(3-(2-(diisopropylamino)ethyl)-1H-indol-4-yl) glutarate dihydrochloride]: in series [1], the concentration for a half-maximal effect (EC50) worked out at 158 nM and the “RFU@10 μM” value turned out to be 6768 RFU. Moreover, the “metabolic stability (conclusion)” value in [2] is on record as “rapidly metabolized”. In “in vitro [3]”, this compound displayed a half-life at 2 µM of less than 4.51 min; an intrinsic clearance (microsomal CLint) at 2 µM greater than 307 µL/min/mg; a share remaining at 1 h, 2 µM of 0%. Besides, the “Remaining Percentage” value in “Rat plasma stability” was found to be 100.00%. In “Rat plasma stability” (rat, plasma), the fraction remaining at 0.5 h was found to be 0%, the share remaining at 1 h came to 0%, the share remaining at 2 h turned out to be 0% and the amount remaining at 3 h came out at 0%. In “Rat plasma stability” (rat, plasma), this compound yielded a share remaining at 4 h of 0%. Besides, the “Remaining Percentage” value in “Dog plasma stability” is reported as 100.00%. In the series “Dog plasma stability” (dog, plasma), this compound gave a half-life of 115 min, a fraction remaining at 0.5 h of 82.6%, an amount remaining at 1 h of 70.5% and a fraction remaining at 2 h of 50.5%. In “Dog plasma stability” (dog, plasma), this compound had an amount remaining at 3 h of 31.6% and a share remaining at 4 h of 24.2%. Besides, the “Remaining Percentage” value in “Human plasma stability” came out at 100.00%. Further, in the series “Human plasma stability” (human, plasma), the amount remaining at 0.5 h is 0%, the share remaining at 1 h was determined as 0%, the fraction remaining at 2 h is 0% and the fraction remaining at 3 h is 0%. Further, in the series “Human plasma stability” (human, plasma), the share remaining at 4 h came to 0%. The “Remaining Percentage” value in “Mouse plasma stability” came to 100.00%. In “Mouse plasma stability” (mouse, plasma), this compound came in with an amount remaining at 0.5 h of 0%, an amount remaining at 1 h of 0%, a fraction remaining at 2 h of 0% and a share remaining at 3 h of 0%. In addition, the fraction remaining at 4 h in “Mouse plasma stability” (mouse, plasma) was 0%.
With `CN(C)CCc1c[nH]c2cccc(O)c12` [Psilocin, 4-hydroxy-N,N-dimethyltryptamine, reference compound], the “RFU@10 μM” value in series [1] came out at 308 RFU. For the same compound, the fraction remaining at 1 h, 2 µM in “in vitro [3]” (setting [10]) came to 70.2%. Further, in the series “in vitro [7]” (Caco-2, pH 7.4), the apical-to-basolateral permeability (Papp A→B) at 2 h, 5 µM worked out at 24.6 ×10⁻⁶ cm/s and the Papp B→A at 2 h, 5 µM was determined as 18.7 ×10⁻⁶ cm/s.
As to `CN(C)CCc1c[nH]c2cccc(OP(=O)(O)O)c12` [Psilocybin], the “RFU@10 μM” value in series [1] was found to be 257 RFU. Also, the “affinity for 5-HT2A receptor” value on human 5-HT2A receptor is “stronger affinity for the human 5-HT2A receptor than for the rat receptor”. For the same compound, in the series with 5-HT2A, the drug discrimination is 5-HT2A antagonists, but not 5-HT1A antagonists, prevented rats from recognizing psilocybin. The “activation of 5-HT1A receptors” value in the series on 5-HT1A receptors was “activates 5-HT1A receptors”. Moreover, the adverse effect entry in series [8] is reported as “transient, delayed headache”.

For orientation: EC50 means the concentration needed to bring the measured effect to its halfway point. For orientation: half-life means the time in which the quantity being followed falls by half. Lower therefore signals fast loss. One may read the microsomal CLint as the rate of metabolic loss divided by the concentration. For orientation: amount remaining means what is left of the initial amount, in per cent. A low value points to a greater loss. For orientation: Papp A→B means the apparent permeability from the apical to the basolateral side of a cell layer. What is called Papp B→A is how fast a substance crosses the layer from the basolateral side. What is called efflux ratio is the permeability from basolateral to apical divided by that in the opposite direction, in the common usage.

Values taken from US20260327250A1, “3-ETHYLAMINO-INDOLE DIMERS AS SEROTONERGIC AGENTS USEFUL FOR THE TREATMENT OF DISORDERS RELATED THERETO” (MINDSET PHARMA INC., priority 2022, published 2026).
